{"source": "patent US20250368652A1", "about": "“MICROBIOCIDAL BICYCLIC HETEROCYCLIC CARBOXAMIDE DERIVATIVES” (SYNGENTA CROP PROTECTION AG, priority 2022, published 2025)", "key": {"[1]": {"test_system": "Glomerella lagenarium (Colletotrichum lagenarium)", "assay": "Glomerella lagenarium (Colletotrichum lagenarium) / liquid culture (anthracnose)", "type": "cell-based", "details": "Colletotrichum orbiculare, liquid culture (PDB), growth inhibition photometrically 3-4 days after application, compared to untreated control", "experimental": "(§1) Mycelia fragments or conidia suspensions of a fungus prepared either freshly from liquid cultures of the fungus or from cryogenic storage, are directly mixed into nutrient broth. DMSO solutions of the test compound (max. 10 mg/mL) are diluted with 0.025% Tween20 by a factor of 50 and 10 μL of this solution is pipetted into a microtiter plate (96-well format). The nutrient broth containing the fungal spores/mycelia fragments is then added to give an end concentration of the tested compound. The test plates are incubated in the dark at 24° C. and 96% relative humidity. The inhibition of fungal growth is determined photometrically after 2 to 7 days, depending on the pathosystem, and percent antifungal activity relative to the untreated check is calculated. Conidia of the fungus from cryogenic storage are directly mixed into nutrient broth (PDB potato dextrose broth). After placing a (DMSO) solution of test compound into a microtiter plate (96-well format), the nutrient broth containing the fungal spores is added. The test plates are incubated at 24° C. and the inhibition of growth is measured photometrically 3-4 days after application."}, "[2]": {"test_system": "Botryotinia fuckeliana (Botrytis cinerea)", "assay": "Botryotinia fuckeliana (Botrytis cinerea) / liquid culture (gray mould)", "type": "cell-based", "details": "liquid culture (Vogels broth), growth inhibition photometrically 3-4 days after application, compared to untreated control", "experimental": "as §1, with “(Vogels” for “(PDB potato dextrose”, “determined” for “measured”"}, "Pyrenophora teres": {"test_system": "Pyrenophora teres", "assay": "Pyrenophora teres / barley / leaf disc preventative (net blotch)", "type": "in vivo", "details": "200 ppm, barley leaf segments cv. Hasso, inoculated 2 days after application, compared to untreated control"}, "Alternaria solani": {"test_system": "Alternaria solani", "assay": "Alternaria solani / tomato / leaf disc (early blight)", "type": "in vivo", "details": "200 ppm; tomato leaf disks cv. Baby, inoculated 2 days after application; compared to untreated control", "experimental": "Leaf disks or leaf segments of various plant species are cut from plants grown in a greenhouse. The cut leaf disks or segments are placed in multiwell plates (24-well format) onto water agar. The leaf disks are sprayed with a test solution before (preventative) or after (curative) inoculation. Compounds to be tested are prepared as DMSO solutions (max. 10 mg/mL) which are diluted to the appropriate concentration with 0.025% Tween20 just before spraying. The inoculated leaf disks or segments are incubated under defined conditions (temperature, relative humidity, light, etc.) according to the respective test system. A single evaluation of disease level is carried out 3 to 14 days after inoculation, depending on the pathosystem. Percent disease control relative to the untreated check leaf disks or segments is then calculated. Tomato leaf disks cv. Baby are placed on agar in multiwell plates (24-well format) and sprayed with the formulated test compound diluted in water. The leaf disks are inoculated with a spore suspension of the fungus 2 days after application. The inoculated leaf disks are incubated at 23° C./21° C."}}, "data": [{"smiles": "Cc1cc2ncc(Oc3cccc(C4CC4)c3)c(C(=O)NCC(F)c3ccc(Cl)cc3Cl)n2n1", "note": "(stereo not shown) [Compound P-1.13, 6-(3-cyclopropylphenoxy)-N-[2-(2,4-dichlorophenyl)-2-fluoro-ethyl]-2-methyl-pyrazolo[1,5-a]pyrimidine-7-carboxamide]", "values": [{"measurement": "inhibition of growth at 20 ppm", "setting": "[1]", "result": "≥ 80", "unit": "%"}, {"measurement": "inhibition of growth at 20 ppm", "setting": "[2]", "result": "≥ 80", "unit": "%"}, {"measurement": "control of Pyrenophora teres", "setting": "Pyrenophora teres", "result": "at least 80%"}, {"measurement": "control of Alternaria solani", "setting": "Alternaria solani", "result": "at least 80%"}]}]}
